In ChEMBL document CHEMBL1201862, “PubChem BioAssay data set” (2004):
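Five concentrations, 48 hours, 96-well plates. GI50 marks 50% less growth.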 Active and inactive are the calls of the source. No stated cut-off is given here; in the data, active = GI50 up to about 1.1 µM and inactive = higher.

How the values were obtained:
Test in all cases: growth of human tumour cells (NCI), 48 h
CAKI-1 = system: CAKI-1
CCRF-CEM = system: CCRF-CEM
M14 = system: M14
SW-620 = system: SW-620
SK-MEL-28 = system: SK-MEL-28
HCT-116 = system: HCT-116
KM12 = system: KM12
COLO 205 = system: COLO 205
K562 = system: K562
SF-268 = system: SF-268
NCI/ADR-RES = system: NCI/ADR-RES
UACC-62 = system: UACC-62
NCI-H23 = system: NCI-H23
NCI-H226 = system: NCI-H226
SN12C = system: SN12C
786-0 = system: 786-0
BT-549 = system: BT-549
A498 = system: A498
NCI-H460 = system: NCI-H460

| SMILES | GI50 (CAKI-1) | GI50 (CCRF-CEM) | GI50 (M14) | GI50 (SW-620) | GI50 (SK-MEL-28) | GI50 (HCT-116) | GI50 (KM12) | GI50 (COLO 205) | GI50 (K562) | GI50 (SF-268) | GI50 (NCI/ADR-RES) | GI50 (UACC-62) | GI50 (NCI-H23) | GI50 (NCI-H226) | GI50 (SN12C) | GI50 (786-0) | GI50 (BT-549) | GI50 (A498) | GI50 (NCI-H460) |
| --- | --- | --- | --- | --- | --- | --- | --- | --- | --- | --- | --- | --- | --- | --- | --- | --- | --- | --- | --- |
| CC(=O)c1cc2c(s1)C(=O)c1scc(C(C)=O)c1C2=O | 0.929 µM (active) | 0.235 µM (active) | 0.736 µM (active) | 0.394 µM (active) | 0.673 µM (active) | 0.293 µM (active) | 1.39 µM (inactive) | 1.97 µM (inactive) | 0.272 µM (active) | 0.319 µM (active) | 0.24 µM (active) | 0.26 µM (active) | 0.432 µM (active) | 1.69 µM (inactive) | 0.273 µM (active) | 0.724 µM (active) | 1.12 µM (active) | 2.34 µM (inactive) | 0.345 µM (active) |
| NS(=O)(=O)c1ccc(/N=N/c2c(O)c(C(=O)O)cc3ccccc23)cc1 | > 100 µM (inactive) | > 100 µM (inactive) | > 75.9 µM (inactive) | > 92.3 µM (inactive) | > 93.5 µM (inactive) | > 100 µM (inactive) | > 75.7 µM (inactive) | > 54.5 µM (inactive) | > 94.4 µM (inactive) | > 100 µM (inactive) | > 100 µM (inactive) | 37.2 µM (inactive) | > 100 µM (inactive) | > 100 µM (inactive) | > 100 µM (inactive) | > 100 µM (inactive) | > 100 µM (inactive) | > 100 µM (inactive) | > 100 µM (inactive) |
| COc1cc(C(=O)O)ccc1OS(=O)(=O)O | > 100 µM (inactive) | > 100 µM (inactive) | > 100 µM (inactive) | > 100 µM (inactive) | > 100 µM (inactive) | > 100 µM (inactive) | > 100 µM (inactive) | > 100 µM (inactive) | > 100 µM (inactive) | > 100 µM (inactive) | > 100 µM (inactive) | > 100 µM (inactive) | > 100 µM (inactive) | > 100 µM (inactive) | > 100 µM (inactive) | > 100 µM (inactive) | > 100 µM (inactive) | > 10 µM (inactive) | > 100 µM (inactive) |
| Clc1nncc2sc(-c3ccccc3)nc12 | 0.2 µM (active) | 29 µM (inactive) | 17.7 µM (inactive) | 21 µM (inactive) | 12.8 µM (inactive) | 16.9 µM (inactive) | 28.9 µM (inactive) | 29.2 µM (inactive) | 7.71 µM (inactive) | 16.3 µM (inactive) | 23.2 µM (inactive) | 16.4 µM (inactive) | 17.5 µM (inactive) | 26 µM (inactive) | 21 µM (inactive) | 85.9 µM (inactive) | 13.9 µM (inactive) | 40.6 µM (inactive) | 16.8 µM (inactive) |
| COC(=O)[C@]12CSC[C@H]1C[C@H](c1ccccc1OC)N2 | > 100 µM (inactive) | > 100 µM (inactive) | > 100 µM (inactive) | > 100 µM (inactive) | > 100 µM (inactive) | > 100 µM (inactive) | > 100 µM (inactive) | > 100 µM (inactive) | > 100 µM (inactive) | > 100 µM (inactive) | > 100 µM (inactive) | > 100 µM (inactive) | > 100 µM (inactive) | > 100 µM (inactive) | > 100 µM (inactive) | > 100 µM (inactive) | > 100 µM (inactive) | > 100 µM (inactive) | > 100 µM (inactive) |
| S=C(c1c[nH]c2ccccc12)N1CCOCC1 | > 100 µM (inactive) | > 100 µM (inactive) | > 100 µM (inactive) | > 100 µM (inactive) | > 100 µM (inactive) | > 100 µM (inactive) | > 100 µM (inactive) | > 100 µM (inactive) | > 100 µM (inactive) | 14.1 µM (inactive) | > 100 µM (inactive) | > 100 µM (inactive) | > 100 µM (inactive) | 24.6 µM (inactive) | > 100 µM (inactive) | > 100 µM (inactive) | > 100 µM (inactive) | > 100 µM (inactive) | > 100 µM (inactive) |
| c1ccc(C2=NOC(c3ccccc3)N2C23CC4CC(CC(C4)C2)C3)cc1 (stereo not given) | > 10 µM (inactive) | > 10 µM (inactive) | > 10 µM (inactive) | > 10 µM (inactive) | > 10 µM (inactive) | > 10 µM (inactive) | > 10 µM (inactive) | > 10 µM (inactive) | > 10 µM (inactive) | > 10 µM (inactive) | > 10 µM (inactive) | > 10 µM (inactive) | > 10 µM (inactive) | > 10 µM (inactive) | > 10 µM (inactive) | > 10 µM (inactive) | > 10 µM (inactive) | > 10 µM (inactive) | > 10 µM (inactive) |
| Cc1nc(C)c(N2CCNCC2)c(O)n1 | > 100 µM (inactive) | > 100 µM (inactive) | > 100 µM (inactive) | > 100 µM (inactive) | > 100 µM (inactive) | > 100 µM (inactive) | > 100 µM (inactive) | > 100 µM (inactive) | > 100 µM (inactive) | > 100 µM (inactive) | > 100 µM (inactive) | > 100 µM (inactive) | > 100 µM (inactive) | > 100 µM (inactive) | > 100 µM (inactive) | > 100 µM (inactive) | > 100 µM (inactive) | > 100 µM (inactive) | > 100 µM (inactive) |
| O=[N+]([O-])O [NITRIC ACID] | > 100 µM (inactive) | > 100 µM (inactive) | > 100 µM (inactive) | > 100 µM (inactive) | > 100 µM (inactive) | > 100 µM (inactive) | > 100 µM (inactive) | > 100 µM (inactive) | > 100 µM (inactive) | > 100 µM (inactive) | > 100 µM (inactive) | > 100 µM (inactive) | > 100 µM (inactive) | > 100 µM (inactive) | > 100 µM (inactive) | > 100 µM (inactive) | > 100 µM (inactive) | > 100 µM (inactive) | > 100 µM (inactive) |
| Cc1nc(Cl)c(Cl)c(Cl)n1 | < 0.01 µM (active) | 0.0109 µM (active) | 0.119 µM (active) | 0.0471 µM (active) | 0.311 µM (active) | 0.118 µM (active) | 0.405 µM (active) | 0.434 µM (active) | < 0.0113 µM (active) | 1.92 µM (inactive) | 0.354 µM (active) | 0.375 µM (active) | 0.526 µM (active) | 2.59 µM (inactive) | 0.284 µM (active) | 0.409 µM (active) | 0.199 µM (active) | 2.32 µM (inactive) | 1.38 µM (inactive) |
| CC(C)(C)c1cc(C(C)(C)C)c2sc(=S)oc2c1O | 5.64 µM (inactive) | 3.76 µM (inactive) | 10.4 µM (inactive) | 9.1 µM (inactive) | 8.09 µM (inactive) | 6.25 µM (inactive) | 4.79 µM (inactive) | 14.5 µM (inactive) | 15 µM (inactive) | 3.4 µM (inactive) | 9.89 µM (inactive) | 10.4 µM (inactive) | 5.37 µM (inactive) | 15.2 µM (inactive) | 6.14 µM (inactive) | 7.45 µM (inactive) | 8.51 µM (inactive) | 12.9 µM (inactive) | 6.1 µM (inactive) |
| Oc1ccc2ccccc2c1-c1nnc(CCCCCCCCc2nnc(-c3c(O)ccc4ccccc34)o2)o1 | 0.813 µM (active) | 0.448 µM (active) | 1.34 µM (inactive) | 3.44 µM (inactive) | 18.1 µM (inactive) | 1.18 µM (inactive) | 27.2 µM (inactive) | 15.3 µM (inactive) | 0.955 µM (active) | 0.834 µM (active) | 1.44 µM (inactive) | 7.64 µM (inactive) | 5.21 µM (inactive) | 10.4 µM (inactive) | 1.21 µM (inactive) | 1.1 µM (active) | 23.1 µM (inactive) | 16.5 µM (inactive) | 0.955 µM (active) |
| OC(CN(CCCl)CCCl)C(O)C(O)C(O)CN(CCCl)CCCl (stereo not given) | > 100 µM (inactive) | 37.6 µM (inactive) | > 100 µM (inactive) | > 100 µM (inactive) | > 100 µM (inactive) | > 100 µM (inactive) | > 100 µM (inactive) | 84.7 µM (inactive) | > 100 µM (inactive) | 41.6 µM (inactive) | 78.9 µM (inactive) | 12.4 µM (inactive) | 63.1 µM (inactive) | > 100 µM (inactive) | 23.2 µM (inactive) | 91 µM (inactive) | > 100 µM (inactive) | > 100 µM (inactive) | 9.89 µM (inactive) |
| Cc1ccnc2[nH]c(-c3ccccc3)cc(=O)c12 | 0.0116 µM (active) | 0.00589 µM (active) | 0.00658 µM (active) | 0.00421 µM (active) | 0.01 µM (active) | 0.00396 µM (active) | 0.00705 µM (active) | 0.0039 µM (active) | 0.00281 µM (active) | 0.0341 µM (active) | 0.00451 µM (active) | 0.00535 µM (active) | 0.0297 µM (active) | 0.0246 µM (active) | 0.0277 µM (active) | 0.0124 µM (active) | 19 µM (inactive) | > 10 µM (inactive) | 0.00682 µM (active) |
| CCCCCC(O)(CCCCC)CCCCCCCCC1=C(O)C(=O)c2ccccc2C1=O | 12 µM (inactive) | 6.12 µM (inactive) | 10.8 µM (inactive) | 7.46 µM (inactive) | 11.7 µM (inactive) | 3.83 µM (inactive) | 5.62 µM (inactive) | 20.7 µM (inactive) | 3.08 µM (inactive) | 6.95 µM (inactive) | 4.4 µM (inactive) | 8.17 µM (inactive) | 8.15 µM (inactive) | 14 µM (inactive) | 9.04 µM (inactive) | 6.32 µM (inactive) | 14.7 µM (inactive) | 13.3 µM (inactive) | 5.28 µM (inactive) |
